Data published in patent US20210380547A1, “UREA DERIVATIVES FOR TREATING AND/OR PREVENTING CANCER” (CENTRE NATIONAL DE LA RECHERCHE SCIENTIFIQUE, priority 2018, published 2021).

Experiments:
MDA-MB-231 = test: XTT cell viability assay, MDA-MB-231; type: cell-based; conditions: Homo sapiens, XTT assay (48 h), standard deviation of 10%, read-out: EC50 (μM) Breast MDA-MB-231
Protocol: (§1) Fifty microliters of sodium 3′-[1-phenylaminocarbonyl)-3,4-tetrazolium]-bis(4-methoxy-6-nitro) benzene sulfonic acid hydrate (XTT) reagent was added to each well. The assay is based on the cleavage of the yellow tetrazolium salt XTT to form an orange formazan dye by metabolically active cells. The absorbance of the formazan product, reflecting cell viability, was measured at 490 nm. Each assay was performed in quadruplicate.
(§2) Compounds #1-#14 have been assayed as potential anti-proliferative agents against a panel of human breast head and neck, and kidney tumor cells and hematological malignancies, selected on the basis of their aggressiveness (e.g. incurable triple-negative breast cancer cells: MDA-MB-231; kidney ccRCC cells: RCC4, A498 and 786-O and 786R; head and neck cancer cells: CAL33, CAL33RR, CAL27, and CAL27RR; acute myeloid cell lines: OCI-AML2, OCI-AML3, MolM13, and MolM14; myelodysplastic cell line: SM1; and chronic myeloid cell line: CML). All these cell lines share as common denominator the expression of CXCR1 and CXCR2. The EC50 values have been measured by a XTT colorimetric assay, and compared to those of SB-225002, used as a reference; the results are listed in Table 1.

A498 = test: XTT cell viability assay, A498; type: cell-based, human; conditions: Homo sapiens, A498; XTT assay (48 h); standard deviation of 10%; read-out: EC50 (μM) Kidney A498
Protocol: as §1, §2

RCC4 = test: XTT cell viability assay, RCC4; type: cell-based; conditions: Homo sapiens, XTT assay (48 h), standard deviation of 10%, read-out: EC50 (μM) Kidney RCC4
Protocol: as §1, §2

786-O = test: XTT cell viability assay, 786-O; type: cell-based, human; conditions: Homo sapiens, 786-0; XTT assay (48 h); standard deviation of 10%; read-out: EC50 (μM) Kidney 786-O
Protocol: (§3) A, B: Naive (786-O, A), and sunitinib-resistant (786-R, B) 786-O cells, were treated with compound #1 or sunitinib (1 to 10 μM) for 48 hr. Cell viability was measured by XTT assays;
(§4) D, E: 786-O (D), 786-R (E), were treated with 2.5 μM compound #1 or 2.5 μM sunitinib for 24 h to 96 h. The cells metabolism was measured by XTT assay;
as §1, §2

OCI-AML2 = test: XTT cell viability assay, OCI-AML2; type: cell-based, human; conditions: Homo sapiens, OCI-AML2; XTT assay (48 h); standard deviation of 10%; read-out: EC50 (μM) AML OCI-AML2
Protocol: as §1, §2

OCI-AML3 = test: XTT cell viability assay, OCI-AML3; type: cell-based, human; conditions: Homo sapiens, OCI-AML-3; XTT assay (48 h); standard deviation of 10%
Protocol: as §1, §2

MolM13 = test: XTT cell viability assay, MolM13; type: cell-based, human; conditions: Homo sapiens, MOLM-13; XTT assay (48 h); standard deviation of 10%; read-out: EC50 (μM) AML MolM13
Protocol: as §1, §2

MolM14 = test: XTT cell viability assay, MolM14; type: cell-based, human; conditions: Homo sapiens, MOLM-14; XTT assay (48 h); standard deviation of 10%; read-out: EC50 (μM) AML MolM14
Protocol: as §1, §2

SKM1 = test: XTT cell viability assay, SKM1; type: cell-based, human; conditions: Homo sapiens, SKM-1; XTT assay (48 h); standard deviation of 10%; read-out: EC50 (μM) MDS SKM1
Protocol: as §1, §2

K562 = test: XTT cell viability assay, K562; type: cell-based, human; conditions: Homo sapiens, K562; XTT assay (48 h); standard deviation of 10%; read-out: EC50 (μM) CML K562
Protocol: as §1, §2

[1] = system: macular degeneration model; test: Macular degeneration model, clinical angiography; type: in vivo, mice; conditions: Day 14, intraperitoneal 400 μg 3 times a week
Protocol: FIG. 9: Evaluation of compounds #1 and #3 on macular degeneration. Clinical angiography at Day 14: Evaluation of the intensity of the lesion by a score from 0 to 3 (0: no leak; 1: light intensity; 2: moderate intensity; 3: immense marking) on mice treated with compounds #1 and #3. The intensities of the lesions were reported, each point corresponding to a lesion. Three lesions were performed on the eyes of each mouse; […]. • 4 groups of 12 mice were induced on the eyes by laser burnt as follows: • G1: vehicle; • G2 and G3: Compounds #1 and #3: intraperitoneal injection of 400 μg of product 3 times a week; and • G4: dexamethasone (2 mg/kg/day) orally. Clinical angiography at Day 14 on the 12 animals: evaluation of the intensity of the lesion by a score of 0 to 3 (0 no leak, 1=light intensity, 2=moderate intensity, 3=intense marking).

786R = test: XTT cell viability assay, 786R (sunitinib-resistant); type: cell-based, human; conditions: Homo sapiens, 48 h, XTT assay (48 h); sunitinib-resistant; standard deviation of 10%; read-out: EC50 (μM) Kidney 786R
Protocol: as §3, §4, §1, §2

[2] = system: malignant (ccRCC and hematological) cells; test: FACS analysis of cell death markers (AV, PI), malignant cells; type: cell-based, human; conditions: 5 μM, 48 h
Protocol: (§5) FIG. 1: Observation by FACS analyses of early (Annexin AV) and late (Propidium Iodide, PI) apoptosis markers expressed by healthy and malignant cells after treatment with compounds #1 and #2 at 5 μM. CT: negative control.
(§6) Apoptosis analysis: After stimulation, cells were washed with ice-cold PBS and were stained with the annexin-V-fluos staining kit (Roche, Meylan, France) according to the manufacturer's procedure. Fluorescence was measured by using the FL2 (AV) and FL3 (propidium iodide, PI) channels of a fluorescence-activated cell sorter apparatus (Calibur cytometer).
(§7) To complete these XTT assays, malignant (ccRCC and hematological) and healthy (human fibroblasts FHN) cells have been grown with compounds #1 or #2, and after 48h the expression of cell death markers (AV and PI) has been quantified by FACS analyses (FIG. 1).

[3] = system: healthy human fibroblasts (FHN); test: FACS analysis of cell death markers (AV, PI), healthy fibroblasts; type: cell-based; conditions: 5 μM, 48 h
Protocol: as §5, §6, §7

[4] = system: CXCL7-dependent HuVEC migration; test: Boyden chamber migration assay, CXCL7-dependent; type: cell-based; conditions: CXCL7 (50 ng/ml)
Protocol: CXCL7 or VEGFA-stimulated chemotaxis assays were monitored using modified Boyden chambers containing polycarbonate membranes (8-μm pores, Transwell; Corning, Sigma). Cells were seeded on the upper side of the filters and chambers were placed on 24-well plates containing CXCL7 (50 ng/ml) or VEGFA (50 ng/ml). Cells were allowed to migrate for 24 hr at 37° C. in 5% CO2. Migratory cells on the lower membrane surface were fixed in 3% paraformaldehyde, stained with 0.1% crystal violet.

SMILES | EC50 (MDA-MB-231) [µM] | EC50 (A498) [µM] | EC50 (RCC4) [µM] | EC50 (786-O) [µM] | EC50 (OCI-AML2) [µM] | EC50 (OCI-AML3) [µM] | EC50 (MolM13) [µM] | EC50 (MolM14) [µM] | EC50 (SKM1) [µM] | EC50 (K562) [µM] | intensity of the lesion (score 0 to 3), clinical angiography [1] | EC50 (786R) [µM] | early (AV) and late (PI) apoptosis markers on malignant cells [2] | apoptosis of healthy human fibroblasts (FHN) [3] | reduction of HuVEC CXCL7-dependent motility (comparison) [4]
CCOc1ccc2nc(NC(=O)Nc3ccccc3C)sc2c1 [Compound #3, 1-(6-ethoxybenzo[d]thiazol-2-yl)-3-(o-tolyl)urea] | 12 | 15 | > 25 | 15 | 15 | 7 | 15 | 10 | 15 | 4 | significant effect |  |  |  | 
O=C(Nc1nc2ccc([N+](=O)[O-])cc2s1)Nc1ccccc1Cl [Compound #2, 1-(2-chlorophenyl)-3-(6-nitrobenzo[d]thiazol-2-yl)urea] | 8 | 5 | 7 | 5 | 10 | 10 | 5 | 10 | 10 | 7 |  | 8 | cytotoxic effect on malignant cells | no increased apoptosis over the control experiment | 
Cc1c(F)cccc1NC(=O)Nc1ccc(Cl)c(S(=O)(=O)[C@H]2CCCNC2)c1O [danirixin, reference compound] |  |  |  |  |  |  |  |  |  |  |  |  |  |  | less efficient than compound #1
